The results in this text go back to patent publication US10329262B2, “Quinazolinone antibiotics” (priority 2013, dated 2019).

Read-outs that look alike come from different tables or passages of the source.

One test concerns S. aureus NRS128. In words: MIC, CLSI broth microdilution, S. aureus NRS128. It is filed as cell-based, Staphylococcus aureus. The following applies: Table 2.1, S. aureus NRS128. The method, then:
(§1) MICs were evaluated following the CLSI microdilution method in BBL™ Mueller-Hinton II broth (Wikler et al., Clinical Laboratory Standards Institute Document M7-A7, 29 (2009)). Briefly, two-fold serial dilutions of compound were prepared in triplicate in 96-well plates and inoculated with 5×10^5 cfu/mL of the bacterial suspension. Plates were incubated at 37° C. for 16-20 hours.
A general note: In broth dilution the organism is exposed to a series of concentrations in liquid medium.

Test [1] concerns S. haemolyticus ATCC 29970. In words: MIC, CLSI broth microdilution, S. haemolyticus ATCC 29970. The class given is cell-based. The protocol:
as §1

A further test concerns S. aureus NRS70. The test is described as follows: MIC, broth microdilution, S. aureus NRS70. It is filed as cell-based, Staphylococcus aureus. The following applies: for MIC: Staphylococcus aureus. The protocol: as §1
The subject of another test is T7 transcription. The test is described as follows: In vitro transcription assay (TranscriptAid T7 kit). It is filed as biochemical. From the text: For in vitro translation, the E. coli S30 Extract System for Circular DNA was used to set up the reactions using plasmid pCP19 containing the lacZ gene for β-galactosidase. Reaction mixtures were supplemented with two-fold dilutions of antibiotic 2 and the β-Galactosidase Enzyme Assay System with Reporter Lysis Buffer was used to quantify the amount of β-galactosidase translated by measuring absorbance at 420 nm. For in vitro transcription, a TranscriptAid T7 High Yield Transcription kit was used with a pET24a/dacB DNA construct under the T7 promoter. The purified plasmid was linearized using the restriction endonuclease XhoI and then purified according to the manufacturer's instructions. A series of samples were prepared and supplemented with two-fold dilutions of antibiotic 2. Samples were analyzed by running on a denaturing 1% formaldehyde agarose gel and stained with ethidium bromide to visualize RNA. Intensities of the bands were quantified and compared to the control to determine the amount of transcription occurring in the presence of 2.

The target of the next test is T1, PBP1 (Staphylococcus aureus, UniProt Q53725).
T1 construct: Fluorescence labeling of S. aureus membrane preparation (150 μg) by Bocillin FL (30 μM); endogenous in cells; host or cells: S. aureus ATCC 29213 membrane preparation
In words: Bocillin FL competition assay, S. aureus membrane preparation. The class given is binding. The protocol:
S. aureus (ATCC 29213), a methicillin-sensitive strain, was grown in Difco Luria-Bertani (LB) broth at 37° C. until an OD625˜0.8. Cells were centrifuged at 3,200 g for 30 min at 4° C. and washed once with cold 100 mM NaH2PO4, 50 mM NaHCO3, pH 7.5, buffer. The cells were resuspended in 10 mL cold buffer containing complete EDTA-free protease inhibitor, 200 μg/mL lysostaphin, 15 μg/mL DNase I, 10 mM MgCl2, and 1 mM EDTA and incubated for 30 min at 37° C. Cells were sonicated using a Branson Sonifer for 5×1 min cycles, with 2 min of rest in between each cycle, and the lysate was centrifuged at 3,200 g for 20 min at 4° C. The supernatant was then ultracentrifuged at 32,000 rpm for 1 h at 4° C. and the pellet was washed once with cold buffer. The resulting membrane was resuspended in buffer, quantified using the BCA Protein Assay Kit, and the concentration was adjusted to 9 mg/mL.
The Bocillin FL competition assays were performed with purified PBP2a and membrane extracts. PBP2a was purified using a previously described protocol (Fuda et al., J. Biol. Chem. 279, 40802-40806 (2004)). […] Samples were centrifuged, loaded to SDS-PAGE, the gels were visualized immediately using a Storm840 Scanner, and fluorescence was quantified using ImageQuant software. IC50 values were calculated using GraphPad prism 5, using the previously published equation.

Another test concerns S. aureus (ATCC 29213). In words: Macromolecular synthesis assays. It is filed as cell-based, Staphylococcus aureus. The text has this:
Mechanism of Action of the Quinazolinones. The mode of action of 2 was investigated by macromolecular synthesis assays in S. aureus in the logarithmic phase, which monitor incorporation of radiolabeled precursors [methyl-^3H]-thymidine, [5-^3H]-uridine, L-[4,5-^3H]-leucine, or D-[2,3-^3H]-alanine into DNA, RNA, protein, or cell wall (peptidoglycan), respectively. Inhibition of radiolabeled precursor incorporation by 2 at a concentration of half the MIC was compared with those of known inhibitors of each pathway (ciprofloxacin, rifampicin, tetracycline, and fosfomycin, respectively).
The mode of action of 2 was investigated by macromolecular synthesis assays in S. aureus in the logarithmic phase (Miller, A A et al. Antimicrob. Agents Chemother. 52, 2806-12 (2008)), which monitor incorporation of radiolabeled precursors [methyl-^3H]-thymidine, [5-^3H]-uridine, L-[4,5-^3H]-leucine, or D-[2,3-^3H]-alanine into DNA, RNA, protein, or cell wall (peptidoglycan), respectively.
The incorporation of radiolabeled precursors—[methyl-^3H]-thymidine, [5-^3H]-uridine, L-[4,5-^3H]-leucine, or D-[2,3-^3H]-alanine—into DNA, RNA, protein, or peptidoglycan, respectively, in logarithmically growing S. aureus (ATCC 29213) was measured using a previously published method, with aliquots taken every 20 min over a 120-min incubation period (Wilson et al., Antimicrob. Agents Chemother. 39, 1925-33 (1995)).

The next test concerns the target T2, PBP2a (Staphylococcus aureus, UniProt Q53707).
T2 construct: PBP2a was purified using a previously described protocol (Fuda et al., J. Biol. Chem. 279, 40802-40806 (2004)); made in house
The test is described as follows: Bocillin FL competition assay, purified recombinant PBP2a. It is filed as binding, S. aureus. The text has this: We next explored if it would inhibit purified recombinant PBP2a by a competition assay with Bocillin FL, a fluorescent penicillin reporter reagent. We purified PBP2a for this study using a previously described protocol from the laboratory of Prof. Mobashery (Fuda et al., J. Biol. Chem. 2004, 279, 40802-40806). This inhibition assay for PBPs has the limitation in that Bocillin FL is a covalent modifier of the active site of PBPs and the equilibrium is inexorably in favor of the irreversible acylation of the active-site serine by the reporter molecule. As such, the degree of inhibition by the non-covalent inhibitor (e.g., 2) will be underestimated.
This inhibition assay for PBPs has the limitation in that Bocillin FL is a covalent modifier of the active site of PBPs and the equilibrium is inexorably in favor of the irreversible acylation of the active-site serine by the reporter molecule. As such, the degree of inhibition by the non-covalent inhibitor (e.g., 2) will be underestimated. This is what was seen.
The Bocillin FL competition assays were performed with purified PBP2a and membrane extracts. […] Samples were centrifuged, loaded to SDS-PAGE, the gels were visualized immediately using a Storm840 Scanner, and fluorescence was quantified using ImageQuant software. IC50 values were calculated using GraphPad prism 5, using the previously published equation.

T2 sequence (Q53707 entry or part of it): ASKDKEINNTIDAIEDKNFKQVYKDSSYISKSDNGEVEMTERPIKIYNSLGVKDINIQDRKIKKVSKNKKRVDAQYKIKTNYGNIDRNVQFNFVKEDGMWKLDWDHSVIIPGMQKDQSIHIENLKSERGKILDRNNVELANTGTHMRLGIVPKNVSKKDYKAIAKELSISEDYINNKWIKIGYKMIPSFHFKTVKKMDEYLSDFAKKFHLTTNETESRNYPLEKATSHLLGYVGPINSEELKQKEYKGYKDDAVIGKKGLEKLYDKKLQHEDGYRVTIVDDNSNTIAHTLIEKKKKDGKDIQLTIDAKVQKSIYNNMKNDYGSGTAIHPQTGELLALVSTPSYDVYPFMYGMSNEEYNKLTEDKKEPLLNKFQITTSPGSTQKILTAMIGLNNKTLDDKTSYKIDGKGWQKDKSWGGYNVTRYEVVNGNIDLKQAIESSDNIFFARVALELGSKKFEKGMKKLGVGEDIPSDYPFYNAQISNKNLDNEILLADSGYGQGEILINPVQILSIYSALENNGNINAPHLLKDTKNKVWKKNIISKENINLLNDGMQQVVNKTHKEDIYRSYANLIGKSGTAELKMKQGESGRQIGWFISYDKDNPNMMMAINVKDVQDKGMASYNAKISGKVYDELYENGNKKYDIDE
T1 sequence (Q53725 1-744): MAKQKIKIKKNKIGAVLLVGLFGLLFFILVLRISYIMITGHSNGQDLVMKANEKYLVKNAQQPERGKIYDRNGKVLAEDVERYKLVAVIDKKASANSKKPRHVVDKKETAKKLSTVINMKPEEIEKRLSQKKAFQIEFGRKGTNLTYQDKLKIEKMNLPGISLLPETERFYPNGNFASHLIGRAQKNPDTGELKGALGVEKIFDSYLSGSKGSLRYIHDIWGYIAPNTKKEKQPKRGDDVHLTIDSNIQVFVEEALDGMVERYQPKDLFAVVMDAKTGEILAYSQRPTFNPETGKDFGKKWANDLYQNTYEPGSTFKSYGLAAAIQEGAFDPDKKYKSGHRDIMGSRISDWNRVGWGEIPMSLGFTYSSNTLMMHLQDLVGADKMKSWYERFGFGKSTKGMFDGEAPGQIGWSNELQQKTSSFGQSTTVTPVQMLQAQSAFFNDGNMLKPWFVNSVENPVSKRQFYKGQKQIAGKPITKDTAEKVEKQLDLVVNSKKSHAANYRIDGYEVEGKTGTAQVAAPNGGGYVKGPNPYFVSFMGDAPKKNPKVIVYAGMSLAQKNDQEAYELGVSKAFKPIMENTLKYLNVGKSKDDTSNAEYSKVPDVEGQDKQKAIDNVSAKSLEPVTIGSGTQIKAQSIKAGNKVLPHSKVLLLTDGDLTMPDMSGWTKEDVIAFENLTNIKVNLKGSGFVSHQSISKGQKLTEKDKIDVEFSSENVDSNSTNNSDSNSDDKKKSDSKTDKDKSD

As a reminder, the MIC is the smallest concentration in the dilution series that meets the test's criterion for growth inhibition. The term IC50 denotes the concentration that gives 50% inhibition. Take `N#Cc1ccc(/C=C/c2nc3ccccc3c(=O)n2-c2cccc(C(=O)O)c2)cc1.[Na]` [Compound 2, Sodium (E)-3-(3-carboxyphenyl)-2-(4-cyanostyryl)quinazolin-4(3H)-one]: the In vitro AB activity (MIC) in the test on S. aureus NRS128 came out at 4 µg/mL; in test [1] (Table 2.1, S. haemolyticus ATCC 29970), 1 µg/mL; with S. aureus NRS70 (Table 2.1, S. aureus NRS70), 2 µg/mL. For the same compound, the minimal inhibitory concentration (MIC) in test [1] (Staphylococcus haemolyticus, ATCC29970) amounted to 1 µg/mL; in the test with S. aureus NRS70 (NRS70) it was 2 µg/mL; in the test with S. aureus NRS70 (NRS70, read-out: MIC NRS70), 4 µg/mL. Besides, the “Inhibition of in vitro transcription” value with T7 transcription was “did not show any inhibition”. The IC50 on PBP1 is 187 µM; at PBP2a, 336 µM. In addition, the “Effect on replication, transcription, or translation” value in the test with S. aureus (ATCC 29213) is reported as “did not significantly affect”. Moreover, in the test with S. aureus (ATCC 29213), the “Inhibition of cell-wall (peptidoglycan) biosynthesis” value came out at 51±12%.
